Reference: US20110070269A1, “LIPOPOLYSACCHARIDE ISOLATED FROM PYRULARIA TISSUE AND/OR PYRULARIA-ASSOCIATED BACTERIA AND USES THEREOF” (THERAPRO TECHNOLOGIES, INC., priority 2009, published 2011)

Legend:
Balb/C mice [1] = test: In vivo neutropenia model (sub-lethal cyclophosphamide); set-up: species or system mouse; settings: day five
Description: Eighteen to twenty-four hours later (day 1), control mice received an injection of saline and the PyEx group received a single dose of PyEx (20 μg/mouse). Mice were bled sequentially via the retro-orbital sinus or tail vein at various times thereafter. Blood was collected in heparinized capillary tubes.
For determination of total versus white cells, blood was diluted into Isoton II (Beckman-Coulter, Fullerton, Calif.). Total cells and white cells were counted using a Model ZM Coulter counter (Beckman-Coulter, Fullerton, Calif.). White cell counts were determined following treatment of whole blood with a RBC lytic reagent (Zap-Oglobin, Beckman-Coulter, Fullerton, Calif.). Blood granulocytes and myelocytes were quantitated by means of an EPICS-XL™ flow cytometry after lysis of red cells.
To more clearly determine what populations of cells were stimulated by treatment with PyEx, in a similar experiment blood and bone marrow cells were collected and analyzed for total blood granulocytes and myelocytes. […] PyEx-1 (20 μg/mouse) was given to mice 24 hours after administration of CP. Blood from PyEx-1 treated experimental and saline treated control mice was collected with heparinized capillary tubes five days after CP administration. Following lysis of red cells, the remaining cells were analyzed by means of an EPICS-XL™ flow cytometer (Beckman-Coulter, Fullerton, Calif.). […]

human bone marrow cells = test: Activation of human bone marrow (Mac-1 x CD14 flow cytometry); format: cell-based; settings: 5 ng/mL, fresh marrow from normal donor
Description: Human bone marrow was provided by the Bone Marrow Transplantation Unit, University of Utah. Experiments were initiated upon obtaining fresh marrow from normal donors. Whole marrow was treated as described above for murine marrow samples. Following incubation for 24 to 36 hours with PyEx or other agents as described, cells were stained with anti-Mac-1-FITC×anti-CD14-PE. Cells were analyzed using a Coulter EPICS-XL™ flow cytometer (Beckman-Coulter, Fullerton, Calif.). Activated populations were identified by positive staining with Mac-1×CD14 (designated Mac-1^+, CD14^+).

murine bone marrow cells = test: Bone marrow activation assay (flow cytometry, percent of cells activated); format: cell-based, mouse; settings: 3 mM
Description: Bone marrow was flushed from the femurs of Balb/C mice with RPMI medium. Cells were collected by centrifugation and the pellet treated with 1 mL of red cell lysis buffer (as described above) for five minutes at 25° C., followed by dilution with 12 mL of RPMI media. Cells were washed by two cycles of centrifugation and resuspension in RPMI. On the final wash, cells were counted using a hemocytometer and the final pellet was resuspended to 4×10^6 cells/mL with RPMI media for use in activation assays, which were quantitated by flow cytometric analysis (described below).
Cells (200 μL, prepared as described above) were collected after gentle trituration to resuspend cells. Each aliquot was diluted with 1 mL PBS, centrifuged to pellet the cells, and the supernatant liquid was removed. The washed cells were sequentially stained in the dark at 4° C. for 15 minutes with anti-CD16/32 to prevent non-specific labeling, then for 45 minutes with either anti-Mac-1-FITC×anti-Mac-1-PE or with Gr-1-FITC×Mac-1-PE. Cells were washed once at 4° C. with 1 mL of PBS and then resuspended in 1 mL of PBS. Human cells were labeled with anti-Mac-1 as above or with anti-Mac-1-FITC×anti-CD14. […] Approximately 15-20×10^3 cells were counted for each analysis. Percent of cells activated was determined as: […]

bone marrow cells = test: Bone marrow cell viability (propidium iodide exclusion); format: cell-based; settings: mouse, 3 mM
Description: Cells (200 μL, prepared as described above) were collected after gentle trituration to resuspend cells. Each aliquot was diluted with 1 mL PBS, centrifuged to pellet the cells, and the supernatant liquid was removed. The washed cells were sequentially stained in the dark at 4° C. for 15 minutes with anti-CD16/32 to prevent non-specific labeling, then for 45 minutes with either anti-Mac-1-FITC×anti-Mac-1-PE or with Gr-1-FITC×Mac-1-PE. Cells were washed once at 4° C. with 1 mL of PBS and then resuspended in 1 mL of PBS. Human cells were labeled with anti-Mac-1 as above or with anti-Mac-1-FITC×anti-CD14. A Coulter EPICS-XL™ flow cytometer was used to enumerate dual, positively-staining control sub-populations and detection of nascent stimulated sub-populations. Activated sub-populations, which labeled with more intensity along the y-axis in Gr-I-FITC×Mac-1-PE, were designated as Mac-1^+hi. Control unactivated cells that also stained positively in both dimensions were designated, Mac-1^+lo. Dead cells were eliminated from analysis by prior staining with propidium iodide. Approximately 15-20×10^3 cells were counted for each analysis. Percent of cells activated was determined as:
Over 15×10^3 cells were analyzed for each sample. Bone marrow cell viability among all samples including the untreated control was 70-76% as determined by propidium iodide exclusion.

[2] = Physical analysis: stability of the immunostimulatory/mitogenic activity; format: physicochemical; settings: proteinase K 50 μg/ml, 10 mM Tris pH 8.0, 10 mM EDTA, 0.5% SDS, 56° C., 30 minutes
Description: A mitogenic assay was used as a measure of immunostimulation. For the mitogen assay, isolated cells were diluted to 1.5×10^6 cells/mL. Aliquots of cells (200 μL/well) were incubated in sterile 96-well plates for 24 to 48 hours prior to the addition of 1 μCi/well of [^3H]thymidine. Radiolabeled DNA was collected on glass fiber filters by means of an Inotech cell harvester (Rockville, Md.) and associated radioactivity was determined by means of an Inotech radiometric instrument or by scintillation counting of individual filters. TLF-D, a proprietary reagent, was utilized at 10 μg/ml to amplify the mitogenic activity of Pyrularia extract (PyEx) in a synergistic fashion.

Balb/C mice [3] = test: Prevention of drug-induced (melphalan) toxic death; format: in vivo, mouse; settings: melphalan 100 mg/kg i.p. alone
Description: The effect of PyEx upon myelocyte stimulation was also observed in vivo as prevention of drug-induced myelosuppression. […] A separate group received melphalan (100 mg/kg, i.p.) and PyEx-1 (10 μg/mouse, subcutaneously). PyEx-1 was given immediately after or as late as 18 hours after melphalan administration, and every 48 hours thereafter.

## O=P1(N(CCCl)CCCl)NCCCO1 (stereo not drawn) [Cyclophosphamide]
Balb/C mice [1]; CP 200 mg/kg alone
  total WBC restoration, % of the difference between the nadir value and the control value: 45%
Balb/C mice [1]; cyclophosphamide 200 mg/kg alone, blood
  Percentage of Granulocytes in Control: 1%

## rhGM-CSF: Recombinant human granulocyte macrophage-colony stimulating factor
Human bone marrow cells
  activated sub-population (Mac-1+, CD14+), % of total cells: 9%

## CC(=O)CCCCn1c(=O)c2c(ncn2C)n(C)c1=O [pentoxifylline]
Murine bone marrow cells
  Activation: 7.54%
Bone marrow cells
  Viability: 61.5%

## concanavalin A
[2]
  effect of proteinase K treatment on mitogenic activity: completely inactivate

## N[C@@H](Cc1ccc(N(CCCl)CCCl)cc1)C(=O)O [Melphalan, melphalan]
Balb/C mice [3]
  Average time of death: day 7
  Drug related deaths/# in group: 3/6
Balb/C mice [3]; listed as melphalan
  Average time of death: eight
